What was measured:
Test in all cases: relative viability (nuclei count vs DMSO), 5 days (fraction); higher = more cells survive
NCI-H1793 = system: NCI-H1793
Outline: (§1)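 Nuclei were stained with Hoechst during a one-step fixation (final 0.05% Triton X-100, 1% formaldehyde, 1 ug/ml Hoechst) carried out 5 days after dosing, then counted on 4× images. The cells, lung cancer lines in 1536-well plates, had been dosed by pin tool the day after seeding with one drug alone or a fixed anchor-drug dose plus five library-drug doses (not always all listed) in √10 steps. Relative viability is the nuclei count in treated wells divided by that in vehicle wells, and each value is the median of duplicate plates.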

NCI-H1650 = system: NCI-H1650
Outline: as §1

HCC-44 = system: HCC-44
Outline: as §1

201T = system: 201T
Outline: as §1

NCI-H2085 = system: NCI-H2085
Outline: as §1

COR-L23 = system: COR-L23
Outline: as §1

NCI-H1563 = system: NCI-H1563
Outline: as §1

NCI-H2347 = system: NCI-H2347
Outline: as §1

NCI-H2405 = system: NCI-H2405
Outline: as §1

NCI-H2023 = system: NCI-H2023
Outline: as §1

NCI-H520 = settings: first compound 0.08 µM
Outline: as §1

C=C1C(=O)O[C@@H](CCCCCCCC)[C@@H]1C(=O)O [C-75] + CS(=O)(=O)CCNCc1ccc(-c2ccc3ncnc(Nc4ccc(OCc5cccc(F)c5)c(Cl)c4)c3c2)o1 [Lapatinib] (partner 2 µM) was tested, and the relative viability (NCI-H1793; first compound 0.08 µM) was 0.635, the relative viability (NCI-H1793; first compound 0.253 µM) was 0.785 and the relative viability (NCI-H1793; first compound 0.8 µM) was 0.493. It also gave a relative viability (NCI-H1793; first compound 2.53 µM) of 0.483, a relative viability (NCI-H1793; first compound 8 µM) of 0.713 and a relative viability (NCI-H1650; first compound 0.08 µM) of 0.844. It also gave a relative viability (NCI-H1650; first compound 0.253 µM) of 0.914, a relative viability (NCI-H1650; first compound 0.8 µM) of 0.775 and a relative viability (NCI-H1650; first compound 2.53 µM) of 0.963. The relative viability (NCI-H1650; first compound 8 µM) was 1.09, the relative viability (HCC-44; first compound 0.08 µM) was 0.943 and the relative viability (HCC-44; first compound 0.253 µM) was 0.963. For the same compound, the relative viability (HCC-44; first compound 0.8 µM) was 0.943, the relative viability (HCC-44; first compound 2.53 µM) was 0.946 and the relative viability (HCC-44; first compound 8 µM) was 0.962. It also gave a relative viability (201T; first compound 0.08 µM) of 1, a relative viability (201T; first compound 0.253 µM) of 1.2 and a relative viability (201T; first compound 0.8 µM) of 0.959. The relative viability (201T; first compound 2.53 µM) was 0.886, the relative viability (201T; first compound 8 µM) was 1.05 and the relative viability (NCI-H2085; first compound 0.08 µM) was 0.802. For the same compound, the relative viability (NCI-H2085; first compound 0.253 µM) was 0.867, the relative viability (NCI-H2085; first compound 0.8 µM) was 0.679 and the relative viability (NCI-H2085; first compound 2.53 µM) was 0.671. The relative viability (NCI-H2085; first compound 8 µM) was 0.769, the relative viability (COR-L23; first compound 0.08 µM) was 0.868 and the relative viability (COR-L23; first compound 0.253 µM) was 0.94. For the same compound, the relative viability (COR-L23; first compound 0.8 µM) was 0.919, the relative viability (COR-L23; first compound 2.53 µM) was 0.469 and the relative viability (COR-L23; first compound 8 µM) was 1.01. It also gave a relative viability (NCI-H1563; first compound 0.08 µM) of 0.886, a relative viability (NCI-H1563; first compound 0.253 µM) of 0.979 and a relative viability (NCI-H1563; first compound 0.8 µM) of 0.881. For the same compound, the relative viability (NCI-H1563; first compound 2.53 µM) was 0.998, the relative viability (NCI-H1563; first compound 8 µM) was 1 and the relative viability (NCI-H2347; first compound 0.08 µM) was 0.862. It also gave a relative viability (NCI-H2347; first compound 0.253 µM) of 0.94, a relative viability (NCI-H2347; first compound 0.8 µM) of 0.965 and a relative viability (NCI-H2347; first compound 2.53 µM) of 0.828. The relative viability (NCI-H2347; first compound 8 µM) was 1.02, the relative viability (NCI-H2405; first compound 0.08 µM) was 1.07 and the relative viability (NCI-H2405; first compound 0.253 µM) was 0.772. It also gave a relative viability (NCI-H2405; first compound 0.8 µM) of 1, a relative viability (NCI-H2405; first compound 2.53 µM) of 1.07 and a relative viability (NCI-H2405; first compound 8 µM) of 1.06. It also gave a relative viability (NCI-H2023; first compound 0.08 µM) of 0.963, a relative viability (NCI-H2023; first compound 0.253 µM) of 0.956 and a relative viability (NCI-H2023; first compound 0.8 µM) of 0.737. It also gave a relative viability (NCI-H2023; first compound 2.53 µM) of 0.691, a relative viability (NCI-H2023; first compound 8 µM) of 0.653 and a relative viability (NCI-H520) of 0.835.

Reference: the supplement of paper PMC10307832
